A word on the Emax: it is the size of the effect at its maximum, as opposed to the concentration needed. A word on the EC50: it is the concentration needed to bring the measured effect to its halfway point. Broadly, the Ki is a measure of affinity in units of concentration, obtained from inhibition or displacement. By half-life is commonly meant how long it takes for the measured level to halve.

Each structure is given as a SMILES string. Read-outs that look alike come from different tables or passages of the source. Bridge positions count the residues as written; N and C are the ends. Square brackets hold non-standard residues; d marks the D form. Peptide text beside a SMILES is read from it. * marks the point of attachment. Phe(4-Br) = N[C@@H](Cc1ccc(Br)cc1)C(=O)O; X2 = Cc1ccc2nc(-c3ccc(N*)cc3)sc2c1; pGlu = O=C1CC[C@@H](C(=O)O)N1; Nle = CCCC[C@H](N)C(=O)O

The target of data set [1] is T1, hAPJ receptor (Homo sapiens, UniProt P35414).
T1 construct: expressed in transfected cells; host or cells: HEK293, transient transfection with PEI
T1 sequence (P35414 1-380): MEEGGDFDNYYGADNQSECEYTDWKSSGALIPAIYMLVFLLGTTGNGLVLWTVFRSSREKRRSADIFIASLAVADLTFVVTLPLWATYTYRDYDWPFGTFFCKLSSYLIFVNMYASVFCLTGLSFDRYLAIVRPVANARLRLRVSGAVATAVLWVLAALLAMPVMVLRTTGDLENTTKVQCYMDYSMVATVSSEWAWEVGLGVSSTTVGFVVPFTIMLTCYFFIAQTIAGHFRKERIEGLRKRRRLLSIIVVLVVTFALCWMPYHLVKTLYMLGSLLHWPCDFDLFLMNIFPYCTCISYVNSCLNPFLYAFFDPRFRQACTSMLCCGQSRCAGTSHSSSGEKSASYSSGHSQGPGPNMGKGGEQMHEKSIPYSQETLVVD
The data set can be described thus: BRET-based β-arrestin2 recruitment assay in HEK293 cells. Format: cell-based. On the procedure:
(§1) HEK293 cells were cultivated in high glucose DMEM medium having 10% FBS, 100 U/mL penicillin/streptomycin, 2 mM glutamine, and 20 mM HEPES at 37° C. in T175 flasks under humidified chamber at 5% CO2. […] Cells were then washed with phosphate-buffered saline (PBS) and 90 μL Hanks' balanced salt solution was added in each well. Then, cells were stimulated with analogs at concentrations ranging from 10^−5 M to 10^−11 M for 5 min at 37° C. (Gαi1) or for 30 min at room temperature (β-arrestin2). After stimulation, 5 μM of coelanterazine 400A was added to each well and the plate was read using the BRET^2 filter set of a GeniosPro plate reader (Tecan, Austria). The BRET ratio was determined as GFP10em/RlucIIem. Data were plotted and EC50 values were determined using GraphPad Prism 8. Each data point represents the mean±SEM of at least three different experiments each done in triplicate.
Background: BRET reads energy transfer from a luciferase to a nearby fluorophore.

A further data set concerns the target T2, human APJ (hAPJ) (Homo sapiens, UniProt P35414).
T2 construct: expressed in transfected cells; cell membranes
T2 sequence (P35414 1-380): T1 sequence (P35414 1-380)
The experiment in a line: Competitive radioligand binding ([125I][Nle75,Tyr77][Pyr1]-Ape13) on membranes of HEK293 cells stably expressing human APJ. On the procedure:
HEK293 cells stably expressing YFP-tagged human APJ were cultured in DMEM medium supplemented with 10% FBS, at 37° C. under a humid atmosphere maintaining 5% CO2. Antibiotic G418 (400 μg/mL) was added to maintain a selection pressure for APJ-expressing cells while penicillin/streptomycin (0.1%) were used to prevent bacterial contamination.
Binding experiments were performed on cell membranes of HEK293 stably expressing the YFP-tagged human APJ receptor. Cells were frozen at −80° C. for storage and quickly thawed right before the experiments (1 min at 37° C.). […] The precipitate (cell membranes) was suspended in binding buffer (50 mM Tris-HCl, 0.2% BSA, pH 7.4). Binding assays were run in 96-well plates. […] (820 Ci/mmol)^3 and test ligand with a range of concentrations from 10^−1 to 10^−11 M in a total volume of 200 μL for 1 h at room temperature.
The incubation mixtures were filtered through a glass fiber filter (Millipore, pre-absorbed of PEI 0.5% for 2 h at 4° C.) to remove unbound ligands, and the filter membranes were washed three times with 170 μL cold binding buffer (4° C.). The γ emission was measured using a 1470 Wizard γ-counter from PerkinElmer (Waltham, USA) (80% efficiency).

Data set [2] has as its target T1, hAPJ receptor. The data set can be described thus: BRET-based Gαi1 activation assay in HEK293 cells. Type of data set: cell-based. On the procedure:
as §1

The nature of data set [3]: Rat plasma stability (half-life in vitro). Format: in vitro ADME. Particulars: male, Sprague-Dawley, rat, plasma, Table I, rat plasma, 37° C., up to 24 h; for half-life at […]: read-out: Half-life in vitro (converted). On the procedure:
Plasma was obtained from male Sprague-Dawley rats by collecting blood in heparin tube and centrifugating at 13,000 rpm to remove blood cells. The isolated plasma was stored at −80° C. and thawed right before the test. In 96-well plate, 6 μL of peptide solution at 1 mM was incubated with 27 μL of plasma at 37° C. in an oven equipped with orbital shaker. Tightly fitted caps were used to seal the wells to avoid water evaporation during incubation. […] A 96-well UPLC plate was put at the bottom to collect the samples. Both plates were centrifuged at 500 g for 10 min at 4° C. to accelerate the filtration. […] The quantity of remaining peptide was plotted into an exponential one-phase decay curve using GraphPad Prism 8 which allowed to calculate peptide half-life. The results were presented as mean±SEM of at least 3 independent experiments, each done in simplicate.
The percentage of remaining analogue was calculated by doing the ratio between AU of compound and AUC of internal standard. Half-lives were extrapolated from curves.

`CCCC[C@H](NC(=O)[C@@H]1CCCN1C(=O)CNC(=O)[C@H](CCCCN)NC(=O)[C@@H]1CCCC[C@H](NC(=O)[C@H](CCCNC(=N)N)NC(=O)[C@@H]2CCC(=O)N2)C(=O)N[C@@H](CCCNC(=N)N)C(=O)N[C@@H](CC(C)C)C(=O)N[C@@H](CO)C(=O)N1)C(=O)N1CCC[C@H]1C(=O)N[C@@H](Cc1ccccc1)C(=O)O` [Compound 13, Pyr-R-c*[X-R-L-S-X]c-K-G-P-Nle-P-F]: the Emax on hAPJ receptor [1] (HEK293, Table V, read-out: ß-arr2 Emax) amounted to 75%; on hAPJ receptor [2] (HEK293, Table V, read-out: Gαi1 Emax), 102%. Moreover, the EC50 is 199 ± 65 nM on hAPJ receptor [1] (Table I, read-out: EC50 β-arr2) and 199 ± 65 nM on hAPJ receptor [1] (Table V, read-out: ß-arr2 EC50). The Ki at human APJ (hAPJ) (Table I, mean ± SEM, read-out: Ki binding) is 4.3 ± 0.3 nM; on human APJ (hAPJ) (Table V, read-out: Binding Ki), 4.3 ± 0.3 nM.

The compound `CCCC[C@H](NC(=O)[C@@H]1CCCN1C(=O)CNC(=O)[C@H](CCCCN)NC(=O)[C@@H]1CC(=O)NC[C@H](NC(=O)[C@H](CCCNC(=N)N)NC(=O)[C@@H]2CCC(=O)N2)C(=O)N[C@@H](CCCNC(=N)N)C(=O)N[C@@H](CC(C)C)C(=O)N[C@@H](CO)C(=O)N1)C(=O)N1CCC[C@H]1C(=O)N[C@@H](Cc1ccccc1)C(=O)O` [Compound 14, Pyr-R-c[Dap-R-L-S-Asp]c-K-G-P-Nle-P-F] showed a half-life at 0.182 mM in data set [3] of 12 ± 6 min.

The compound `CCCC[C@H](NC(=O)[C@@H]1CCCN1C(=O)CNC(=O)[C@H](CCCCN)NC(=O)[C@@H]1CC(=O)NCCCC[C@H](NC(=O)[C@H](CCCNC(=N)N)NC(=O)[C@@H]2CCC(=O)N2)C(=O)N[C@@H](CCCNC(=N)N)C(=O)N[C@@H](CC(C)C)C(=O)N[C@@H](CO)C(=O)N1)C(=O)N1CCC[C@H]1C(=O)N[C@@H](Cc1ccccc1)C(=O)O` [Compound 17, Pyr-R-c[Lys-R-L-S-Asp]c-K-G-P-Nle-P-F] ([pGlu]RKRLSDKGP[Nle]PF-OH; lactam 3-7) showed a half-life at 0.182 mM in data set [3] of 6 min. Consider `CCCC[C@H](NC(=O)[C@@H]1CCCN1C(=O)CNC(=O)[C@H](CCCCN)NC(=O)[C@@H]1CC=CCCC(=O)N[C@@H](CCCNC(=N)N)C(=O)N[C@@H](CC(C)C)C(=O)N[C@@H](CO)C(=O)N1)C(=O)N1CCC[C@H]1C(=O)N[C@@H](Cc1ccccc1)C(=O)O` [Compound 22, Ø-c[X-R-L-S-X]c-K-G-P-Nle-P-F], for which, in data set [3], the half-life at […] is 120 ± 12 min. On the same count and under the same terms, then `CCCC[C@@H]1NC(=O)[C@@H](N)CC=CC[C@@H](C(=O)N[C@@H](CCCCN)C(=O)NCC(=O)N2CCC[C@H]2C(=O)N[C@@H](CCCC)C(=O)N2CCC[C@H]2C(=O)N[C@@H](Cc2ccccc2)C(=O)O)NC(=O)[C@H](CO)NC(=O)[C@H](CC(C)C)NC1=O` [Compound 24, NH2-c[X-Nle-L-S-X]c-K-G-P-Nle-P-F], with 228 ± 30 min. The compound `CCCC[C@H](NC(=O)[C@@H]1CCCN1C(=O)CNC(=O)[C@H](CCCCN)NC(=O)[C@@H]1Cc2cncn2CC=CC[C@H](N)C(=O)N[C@@H](CCCNC(=N)N)C(=O)N[C@@H](CC(C)C)C(=O)N[C@@H](CO)C(=O)N1)C(=O)N1CCC[C@H]1C(=O)N[C@@H](Cc1ccccc1)C(=O)O` [Compound 25, NH2-c[X-R-L-S-Alh]c-K-G-P-Nle-P-F] gave a half-life at 0.182 mM in data set [3] of 120 ± 18 min. Still for that read-out and setting: then `CC(C)C[C@@H]1NC(=O)[C@H](CCCNC(=N)N)NC(=O)[C@@H](N)CC=CC[C@@H](C(=O)N[C@@H](CCCCN)C(=O)NCC(=O)N2CCC[C@H]2C(=O)N[C@@H](Cc2cccc3ccccc23)C(=O)O)NC(=O)[C@H](CO)NC1=O` [Compound 35, NH2-c[X-R-L-S-X]c-K-G-P-1Nal], with 18 ± 6 min; and `CC(C)C[C@@H]1NC(=O)[C@H](CCCNC(=N)N)NC(=O)[C@@H](N)CC=CC[C@@H](C(=O)N[C@@H](CCCCN)C(=O)NCC(=O)N2CCC[C@H]2C(=O)N[C@@H](Cc2ccc3ccccc3c2)C(=O)O)NC(=O)[C@H](CO)NC1=O` [Compound 36, NH2-c[X-R-L-S-X]c-K-G-P-2Nal], with 24 ± 6 min; and `CC(C)C[C@@H]1NC(=O)[C@H](CCCNC(=N)N)NC(=O)[C@@H](N)CC=CC[C@@H](C(=O)N[C@@H](CCCCN)C(=O)NCC(=O)N2CCC[C@H]2C(=O)N[C@@H](Cc2ccc(OCc3ccccc3)cc2)C(=O)O)NC(=O)[C@H](CO)NC1=O` [Compound 37, NH2-c[X-R-L-S-X]c-K-G-P-TyrOBn], with 30 ± 6 min. Same read-out and setting: then `CC(C)C[C@@H]1NC(=O)[C@H](CCCNC(=N)N)NC(=O)[C@@H](N)CC=CC[C@@H](C(=O)N[C@@H](CCCCN)C(=O)NCC(=O)N2CCC[C@H]2C(=O)N[C@@H](Cc2ccc(OCc3ccccc3)c(C3CCCC3)c2)C(=O)O)NC(=O)[C@H](CO)NC1=O` [Compound 38, NH2-c[X-R-L-S-X]c-K-G-P-cypTyr(OBn)], with 678 ± 60 min. In the case of `CC(=O)N[C@@H](CCCCN)C(=O)N[C@@H](Cc1ccccc1)C(=O)N[C@@H](CCCNC(=N)N)C(=O)N[C@@H](CCCNC(=N)N)C(=O)N[C@@H](CCC(N)=O)C(=O)N[C@@H](CCCNC(=N)N)C(=O)N1CCC[C@H]1C(=O)N[C@@H](CCCNC(=N)N)C(=O)N[C@@H](CC(C)C)C(=O)N[C@H]1CCC(=O)NCCCC[C@@H](C(=O)N2CCC[C@H]2C(=O)N[C@@H](C)C(=O)N2CCC[C@H]2C(=O)N[C@@H](Cc2ccccc2)C(=O)O)NC(=O)[C@H](C)NC(=O)[C@H](Cc2c[nH]cn2)NC1=O` [Compound 62, Ac-K-F-R-R-Q-R-P-R-L-[E-H-A-K]-P-A-P-F] (Ac-KFRRQRPRLEHAKPAPF-OH; lactam 10-13), the EC50 at hAPJ receptor [1] came to 1260 nM. At human APJ (hAPJ) (Ki binding), this compound displayed a Ki of 11 ± 7 nM. As to `CCCC[C@H](NC(=O)[C@@H]1CCCN1C(=O)[C@@H]1CCCCNC(=O)CC[C@H](NC(=O)[C@H](CC(C)C)NC(=O)[C@H](CCCNC(=N)N)NC(=O)[C@@H]2CCCN2C(=O)[C@H](CCCNC(=N)N)NC(=O)[C@H](CCC(N)=O)NC(=O)[C@H](CCCNC(=N)N)NC(=O)[C@H](CCCNC(=N)N)NC(=O)[C@H](Cc2ccccc2)NC(=O)[C@H](CCCCN)NC(C)=O)C(=O)N[C@@H](Cc2c[nH]cn2)C(=O)N[C@@H](CCCCN)C(=O)N1)C(=O)N1CCC[C@H]1C(=O)N[C@@H](CC(=O)Nc1ccc(-c2nc3ccc(C)cc3s2)cc1)C(=O)O` [Compound 68, Ac-K-F-R-R-Q-R-P-R-L-[E-H-K-K]-P-Nle-P-B2] (Ac-KFRRQRPRLEHKKP[Nle]PD(X2)-OH; lactam 10-13), the affinity at human APJ (hAPJ) (Ki binding), expressed as Ki, was 4 ± 1 nM. Take `CC(C)C[C@@H]1NC(=O)[C@@H]2CCCN2C(=O)[C@@H](NC(=O)[C@H](CO)NC(=O)[C@H](CCCNC(=N)N)NC(=O)[C@H](CCCNC(=N)N)NC(=O)[C@@H]2CCC(=O)N2)CCC(=O)NCCCC[C@@H](C(=O)N[C@@H](CCCNC(=N)N)C(=O)N[C@H](C(=O)N2CCC[C@H]2C(=O)N[C@@H](Cc2ccc(Br)cc2)C(=O)N2CCC[C@H]2C(=O)O)C(C)C)NC(=O)[C@H](Cc2c[nH]cn2)NC1=O` [Compound 92, Pyr-R-R-S-[E-P-L-H-K]-R-V-P-4BrF-P] ([pGlu]RRSEPLHKRVP[Phe(4-Br)]P-OH; lactam 5-9): the EC50 on hAPJ receptor [1] turned out to be 439 ± 91 nM; at hAPJ receptor [2] it was 16 ± 3 nM. The Ki at human APJ (hAPJ) (Binding Ki) turned out to be 15 ± 2 nM.

(Values after patent US20240343761A1, “APELINERGIC MACROCYCLES AND USES THEREOF” (priority 2021, published 2024).)
